Entries after “also recorded” stand apart in the source; their conditions may differ. Like-named read-outs stand apart in the source and are kept apart here.
Tests used:
Format in all cases: cell-based
[1] = test system: Xanthomonas oryzae pv. oryzae (Xoo); conditions: 8 mm paper disc, 30° C., 24 hours; for degree of inhibition against the growth of Xoo: 10 mM or 20 mM, dark condition, FIGS. 2 and 3; for degree of inhibition against the growth of Xoo (inhibition radius): 10 mM, FIG. 1
[2] = test system: Xanthomonas oryzae pv. oryzae (Xoo); conditions: biplate, paper disc on opposite side, 10 mM, 30° C., dark condition, 24 hours; FIG. 4
[3] = test system: Magnaporthe oryzae; conditions: 500 mM (40 μl) on disc, 1.5 cm apart, 28° C., 96 hours; FIG. 7
[4] = test system: Xanthomonas oryzae; conditions: by volatility, same manner as Example 3 (10 mM); FIG. 5

Row | Molecule | degree of inhibition against the growth of Xoo [1] | degree of inhibition against the growth of Xoo by volatility [2] | growth inhibition of Magnaporthe oryzae [3] | degree of inhibition against the growth of Xoo (inhibition radius) [1] | inhibitory effect against the growth of Xanthomonas oryzae compared to Xanthomonas fragariae and Xanthomonas axonopodis [4] | degree of inhibition against the growth of Xoo ([1]; listed as (S)-(+)-carvone) | degree of inhibition against the growth of Xoo ([1]; listed as (R)-(−)-carvone)
1 | C=C(C)C1CCC2(C)OC2C1 (single isomer, unassigned; (-)) [(−)-limonene oxide] | effect of directly inhibiting the growth | did not show a strong inhibitory effect against the growth but showed a larger area for the inhibitory effect compared to those of carveol and carvone | effect of inhibiting the growth |  |  |  | 
2 | C=C(C)[C@H]1CC=C(C)CC1 [(R)-(+)-limonene, R-(+)-limonene, reference compound] |  | no significant effect |  |  |  |  | 
3 | C=C(C)[C@@H]1CC=C(C)CC1 [(S)-(−)-limonene, S-(−)-limonene, reference compound] |  | no significant effect | inhibited the growth | inhibitory effect | more specifically significant inhibitory effect against the growth of Xanthomonas oryzae |  | 
4 | C=C(C)C1CC=C(C)[C@@H](O)C1 (stereo partly drawn) [L-carveol] | effect of directly inhibiting the growth; also recorded: particularly strong inhibitory effect | strong inhibitory effect | effect of inhibiting the growth | larger inhibition radius than that of limonene | more specifically significant inhibitory effect against the growth of Xanthomonas oryzae |  | 
5 | C=C(C)[C@H]1CC=C(C)C(=O)C1 [S-(+)-carvone] | effect of directly inhibiting the growth | strong inhibitory effect | effect of inhibiting the growth | larger inhibition radius than that of limonene | more specifically significant inhibitory effect against the growth of Xanthomonas oryzae | particularly strong inhibitory effect | 
6 | Cc1ccc(C(C)C)cc1O [carvacrol] | effect of directly inhibiting the growth |  | effect of inhibiting the growth |  |  |  | 
7 | CC1=CCC(C(C)(C)O)CC1 (stereo not drawn) [α-terpineol] | effect of directly inhibiting the growth |  | effect of inhibiting the growth |  |  |  | 
8 | (+)-isopulegol | effect of directly inhibiting the growth |  | effect of inhibiting the growth |  |  |  | 
9 | (+)-limonene oxide | effect of directly inhibiting the growth |  | effect of inhibiting the growth |  |  |  | 
10 | (S)-(−)-perillyl alcohol | effect of directly inhibiting the growth |  | effect of inhibiting the growth |  |  |  | 
11 | (−)-isopulegol | effect of directly inhibiting the growth |  | effect of inhibiting the growth |  |  |  | 
12 | R-(−)-carvone | effect of directly inhibiting the growth | strong inhibitory effect | effect of inhibiting the growth |  |  |  | particularly strong inhibitory effect

From patent US11213029B2 (priority 2017, dated 2022)
